{"source": "patent US20110039763A1", "about": "“TARGETED ANTIMICROBIAL MOIETIES” (C3 JIAN, INC., priority 2009, published 2011)", "key": {"microorganisms [1]": {"system": "microorganisms", "assay": "Peptide activities: targeting/binding, antimicrobial, growth or phenotype altering (Tables 7, 8)", "assay_type": "cell-based", "conditions": "peptides having multiple activities"}, "microorganisms [2]": {"system": "microorganisms", "assay": "Morphology, biofilm and growth disrupting peptides (Table 5)", "assay_type": "cell-based", "parameters": "key: A: Peptide aggregates; B: Less hyphal formation; Clumps; Diffuse clumps and small polyps; F: Diffuse growth; H: Thin; I: Growth inhibition; Microcolony formation; Rippled; Small polyps; Thick; W: Halo formation on top, microlonies on bottom", "excerpt": "In certain embodiments peptides that induce alterations in phenotype or other biological activities can also be used as antimicrobial effector moieties."}}, "data": [{"substance": "PF-139: peptide having multiple activities (chain 1 ALSKPAIQARTLCRRQDPP; chain 2 ALSKPAIQARTLCRRQDPP; Peptide with targeting and/or antimicrobial activity)", "values": [{"measurement": "Activities", "setting": "microorganisms [1]", "result": "G B"}, {"measurement": "Organism, effect: C. jeikeium", "setting": "microorganisms [2]; C. jeikeium", "result": "C. jeikeium (R)"}, {"measurement": "Organism, effect: M. luteus", "setting": "microorganisms [2]; M. luteus", "result": "M. luteus (C)"}, {"measurement": "Organism, effect: S. epidermidis", "setting": "microorganisms [2]; S. epidermidis", "result": "S. epidermidis (M)"}]}, {"substance": "PF-398: peptide having multiple activities (chain 1 ILVVLAGILLVVLSYVGISKFKMNC; chain 2 ILVVLAGILLVVLSYVGISKFKMNC; Peptide with targeting and/or antimicrobial activity)", "values": [{"measurement": "Activities", "setting": "microorganisms [1]", "result": "G B"}, {"measurement": "Organism, effect: E. coli", "setting": "microorganisms [2]; E. coli", "result": "E. coli (C)"}, {"measurement": "Organism, effect: E. faecalis", "setting": "microorganisms [2]; E. faecalis", "result": "E. faecalis (C)"}, {"measurement": "Organism, effect: MRSA", "setting": "microorganisms [2]; MRSA", "result": "MRSA (C)"}, {"measurement": "Organism, effect: S. epidermidis", "setting": "microorganisms [2]; S. epidermidis", "result": "S. epidermidis (C)"}]}, {"substance": "PF-432: peptide having multiple activities (chain 1 FNGDSEFFLCIAF; chain 2 FNGDSEFFLCIAF; Peptide with targeting and/or antimicrobial activity)", "values": [{"measurement": "Activities", "setting": "microorganisms [1]", "result": "G B"}, {"measurement": "Organism, effect", "setting": "microorganisms [2]; C. jejuni", "result": "C. jejuni (D)"}, {"measurement": "Organism, effect", "setting": "microorganisms [2]; E. coli", "result": "E. coli (R)"}, {"measurement": "Organism, effect", "setting": "microorganisms [2]; E. faecalis", "result": "E. faecalis (D)"}, {"measurement": "Organism, effect", "setting": "microorganisms [2]; MRSA", "result": "MRSA (M)"}, {"measurement": "Organism, effect", "setting": "microorganisms [2]; P. aeruginosa", "result": "P. aeruginosa (A)"}, {"measurement": "Organism, effect", "setting": "microorganisms [2]; S. epidermidis", "result": "S. epidermidis (M)"}, {"measurement": "Organism, effect", "setting": "microorganisms [2]; S. pneumoniae", "result": "S. pneumoniae (D)"}]}, {"substance": "PF-630: peptide having multiple activities (chain 1 IPATPIIHS; chain 2 IPATPIIHS; Peptide with targeting and/or antimicrobial activity)", "values": [{"measurement": "Activities", "setting": "microorganisms [1]", "result": "G B"}, {"measurement": "Organism, effect", "setting": "microorganisms [2]; MRSA", "result": "MRSA (M)"}]}, {"substance": "PF-357: peptide having multiple activities (chain 1 MLTIIIGFIFWTMTLMLGYLIGEREGRKHE; chain 2 MLTIIIGFIFWTMTLMLGYLIGEREGRKHE; Peptide with targeting and/or antimicrobial activity)", "values": [{"measurement": "Activities", "setting": "microorganisms [1]", "result": "G B"}, {"measurement": "Organism, effect: M. luteus", "setting": "microorganisms [2]; M. luteus", "result": "M. luteus (C)"}, {"measurement": "Organism, effect: MRSA", "setting": "microorganisms [2]; MRSA", "result": "MRSA (M)"}, {"measurement": "Organism, effect: S. epidermidis", "setting": "microorganisms [2]; S. epidermidis", "result": "S. epidermidis (M)"}, {"measurement": "Organism, effect: S. pneumoniae", "setting": "microorganisms [2]; S. pneumoniae", "result": "S. pneumoniae (M)"}]}, {"substance": "PF-562: peptide having multiple activities (TPEQWLERSTVVVTGLLNRK; Peptide with targeting and/or antimicrobial activity)", "values": [{"measurement": "Activities", "setting": "microorganisms [1]", "result": "G B"}, {"measurement": "Organism, effect", "setting": "microorganisms [2]; C. jejuni", "result": "C. jejuni (R)"}, {"measurement": "Organism, effect", "setting": "microorganisms [2]; M. luteus", "result": "M. luteus (R)"}, {"measurement": "Organism, effect", "setting": "microorganisms [2]; MRSA", "result": "MRSA (M)"}, {"measurement": "Organism, effect", "setting": "microorganisms [2]; S. epidermidis", "result": "S. epidermidis (A)"}, {"measurement": "Organism, effect", "setting": "microorganisms [2]; S. pneumoniae", "result": "S. pneumoniae (D)"}]}, {"substance": "PF-451: peptide having multiple activities (MVNYIIGSYMLYREQNNNEALRKFDITLAM; Peptide with targeting and/or antimicrobial activity)", "values": [{"measurement": "Activities", "setting": "microorganisms [1]", "result": "G B"}, {"measurement": "Organism, effect", "setting": "microorganisms [2]; E. coli", "result": "E. coli (R)"}, {"measurement": "Organism, effect", "setting": "microorganisms [2]; E. faecalis", "result": "E. faecalis (C)"}, {"measurement": "Organism, effect", "setting": "microorganisms [2]; MRSA", "result": "MRSA (C)"}, {"measurement": "Organism, effect", "setting": "microorganisms [2]; S. epidermidis", "result": "S. epidermidis (C)"}, {"measurement": "Organism, effect", "setting": "microorganisms [2]; S. pneumoniae", "result": "S. pneumoniae (C)"}]}, {"substance": "PF-539: peptide having multiple activities (SIILTKKKRRKIPLSIDSQIYKYTFKQ; Peptide with targeting and/or antimicrobial activity)", "values": [{"measurement": "Activities", "setting": "microorganisms [1]", "result": "G B"}, {"measurement": "Organism, effect", "setting": "microorganisms [2]; MRSA", "result": "MRSA (H)"}, {"measurement": "Organism, effect", "setting": "microorganisms [2]; S. pneumoniae", "result": "S. pneumoniae (A)"}]}, {"substance": "PF-544: peptide having multiple activities (FGEKQMRSWWKVHWFHP; Peptide with targeting and/or antimicrobial activity)", "values": [{"measurement": "Activities", "setting": "microorganisms [1]", "result": "G B"}, {"measurement": "Organism, effect", "setting": "microorganisms [2]; E. faecalis", "result": "E. faecalis (R)"}, {"measurement": "Organism, effect", "setting": "microorganisms [2]; MRSA", "result": "MRSA (D)"}, {"measurement": "Organism, effect", "setting": "microorganisms [2]; S. epidermidis", "result": "S. epidermidis (D)"}, {"measurement": "Organism, effect", "setting": "microorganisms [2]; S. pneumoniae", "result": "S. pneumoniae (M)"}]}]}
